Data published in ChEMBL document CHEMBL1201862, “PubChem BioAssay data set” (2004).
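Cultured in 96-well plates, cells were exposed to test compound for 48 hours across five concentrations. GI50: concentration for 50% inhibition of growth.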 Activity calls are given as the source filed them. Rule as the data show it: active = GI50 up to about 1.1 µM and inactive = higher.

Legend:
Assay in all cases: growth of human tumour cells (NCI), 48 h
[1] = tested on: Malme-3M
[2] = tested on: EKVX
[3] = tested on: TK-10
[4] = tested on: SNB-19
[5] = tested on: OVCAR-3
[6] = tested on: BT-549

For `C=C1C(=O)O[C@@H]2C=C(C)C3=CC(=O)[C@](C)(C[C@H](OC(=O)/C(C)=C\C)[C@@H]12)O3`, the GI50 [1] was 1.34 µM (inactive), the GI50 [2] was 2.77 µM (inactive) and the GI50 [3] was 826 nM (active). For the same compound, the GI50 [4] was 8.47 µM (inactive), the GI50 [5] was 491 nM (active) and the GI50 [6] was 493 nM (active).
